Values joined by “and” are separate entries in the source; they are usually repeats but may differ in a detail not shown here. Equal values may be shown once.

The subject of the assay is S. typhi GFP reporter counter-screen, fluorescence, 4 h. The assay is described as follows: S. typhi counter-screen signal inhibition – fluorescence, 4 h, counter-screen for PhoP regulon inhibitor project, dose response (AID 2384). On the technique in general: Counterscreens check selectivity or assay interference.
`CCOc1ccc(Nc2nc(NCC3CCCO3)c3ccccc3n2)cc1` (stereo not given): the IC50 was 19.6 µM.

As for `COc1ccc(-c2cnc(NCc3cc4c(cc3[N+](=O)[O-])OCO4)n2C)cc1`, the IC50 was 145 µM.

On to `Brc1ccc2c(c1)C(OC1CN3CCC1CC3)c1ccccc1CS2` (stereo not given), for which the half-inhibitory concentration (IC50) is 31.8 µM.

On to `CCN(CC)C(=S)SSC(=S)N(CC)CC`, for which the concentration for half-maximal inhibition (IC50) was 74.7 µM.

Turning to `C#CCOCCOCCOCCNc1nc(N2CCN(C(=O)CCCCCCCCCCNC(=O)[C@H](CCCCN)n3cc(CCO)nn3)CC2)nc(N2CCN(C(=O)CCCCCCCCCCNC(=O)[C@H](CCCCN)n3cc(C[C@@H](C)CC)nn3)CC2)n1`, the concentration for half-maximal inhibition (IC50) is 20 µM.

In the case of `Cc1cc(C)n(-c2nc(SCCN(C)C)c3c4c(sc3n2)CCCC4)n1`, the IC50 is 37.8 µM.

On to `Cc1cc(C)n(/N=C/c2cc(Cl)cc(Cl)c2O)c(=O)c1`, for which the IC50 was 101 µM.

Take `Cc1ccc(C(C[N+](=O)[O-])c2c(N)n(C)c(=O)n(C)c2=O)cc1` (stereo not given): the half-inhibitory concentration (IC50) is 61.3 µM.

For `CC(Nc1nc(N2CCCCC2)nc2ccccc12)c1ccccc1` (stereo not given), the IC50 is 133 µM.

`CC(NCc1ccc(Cl)cc1)C(O)c1ccccc1` (stereo not given): the half-inhibitory concentration (IC50) is 42.8 µM.

In the case of `CC(NCc1ccc(Cl)c(Cl)c1)C(O)c1ccccc1` (stereo not given), the IC50 is 29.8 µM.

With `Cc1ccccc1C(=O)NNC(=S)NC(=O)COc1ccccc1`, the half-inhibitory concentration (IC50) is 126 µM.

On to `C#CCOCCOCCOCCNc1nc(N2CCN(C(=O)CCCCCCCCCCNC(=O)Cn3cc(CCCCCN)nn3)CC2)nc(N2CCN(C(=O)CCCCCCCCCCNC(=O)[C@H]([C@@H](C)CC)n3cc(CCCCN=C(N)N)nn3)CC2)n1`, for which the IC50 was 38.2 µM.

Take `CCOc1cccc(CNCCc2c(C)[nH]c3ccc(OC(F)(F)F)cc23)c1O`: the IC50 was 31.2 µM.

Regarding `COc1cc(/C=N/N=C(N)N)ccc1OCc1ccc(Cl)cc1`, the IC50 was 46.8 µM.

As for `Cc1ccc(-c2csc(NC(=O)C[n+]3cc(-c4ccc(C)cc4)n4c3CCC4)n2)cc1`, the half-maximal inhibitory concentration (IC50) is 19.3 µM.

As for `C(=N\Nc1ccccn1)/c1cccnc1`, the concentration for half-maximal inhibition (IC50) is 30.1 µM.

Turning to `Cc1cc(C)c2nc(C)cc(N/N=C/c3ccc(O)cc3)c2c1`, the IC50 was 57.9 µM.

In the case of `CCn1cc(C(=O)NCC(C)C)c(=O)c2cc(F)c(N3CCN(C)CC3)cc21`, the IC50 was 64.4 µM.

In the case of `CC[C@H]1OC(=O)[C@H](C)[C@@H](O[C@H]2C[C@@](C)(OC)[C@@H](O)[C@H](C)O2)[C@H](C)[C@@H](O[C@@H]2O[C@H](C)C[C@H](N(C)C)[C@H]2O)[C@](C)(OC)C[C@@H](C)C(=O)[C@H](C)[C@@H](O)[C@]1(C)O`, the IC50 is 29.7 µM.

In the case of `N=c1c2c(n(Cc3ccc(Cl)cc3Cl)c3c1CCC3)CCCC2`, the IC50 was 37.5 µM.

On to `CN1CCN(c2c(F)cc3c(=O)c(C(=O)O)cn4c3c2SCC4)CC1`, for which the concentration for half-maximal inhibition (IC50) is 6.28 µM and 8.88 µM.

As to `CNCCCC1Sc2ccccc2Oc2ccccc21` (stereo not given), the 50% inhibitory concentration (IC50) was 46.4 µM.

Take `Cc1cc(N/N=C/c2ccc(O)cc2)c2cccc(C)c2n1`: the 50% inhibitory concentration (IC50) is 47.5 µM.

For the molecule `COc1ccccc1C(C[N+](=O)[O-])c1c(N)n(C)c(=O)n(C)c1=O` (stereo not given), the IC50 is 38.5 µM.

Turning to `CC(C(=O)NC1C=CS(=O)(=O)C1)N1C(=O)/C(=C/c2cccc(Cl)c2)SC1=S` (stereo not given), the half-inhibitory concentration (IC50) is 59.2 µM.

`OC(CNCCc1ccc(Cl)cc1Cl)COc1ccccc1` (stereo not given): the IC50 was 37.3 µM.

Consider `O=C(CCN1CCN(c2ccccc2)CC1)c1ccc(Cl)cc1`, for which the IC50 is 70.3 µM.

As for `CCCCCC(CC(=O)NO)C(=O)NC(C(=O)N1CCCC1CO)C(C)C` (stereo not given), the IC50 is 20.3 µM.

In the case of `CC1CC(C)CN(CCOc2ccc(Cl)cc2Cl)C1` (stereo not given), the IC50 is 88.2 µM.

Regarding `N/C(=N\OS(=O)(=O)c1ccccc1)c1cccnc1`, the IC50 was 12.4 µM.

Regarding `O=C(NC1CCCCC1)c1ccc([N+](=O)[O-])o1`, the IC50 is 119 µM.

Take `CCCOc1ccc(C2=CSC3=NCCN23)cc1Cl`: the 50% inhibitory concentration (IC50) was 75.1 µM.

For `CN(C)CCCN(C(=O)c1ccc2c(c1)CCCC2)c1nc2ccc(Cl)cc2s1`, the IC50 was 54.1 µM.

Take `O=C(Nc1ccc([N+](=O)[O-])cc1Cl)c1cc(Cl)ccc1O`: the half-maximal inhibitory concentration (IC50) is 19.7 µM.

On to `Cc1c(Cl)cccc1Nc1nc(NCCO)c2ccccc2n1`, for which the 50% inhibitory concentration (IC50) was 40.1 µM.

Turning to `O=[N+]([O-])c1cc([N+](=O)[O-])c2cccnc2c1Oc1ccccc1O`, the concentration for half-maximal inhibition (IC50) is 41.7 µM.

In the case of `CCN1CCCC1CNC(=O)c1cc2cc(F)ccc2[nH]1` (stereo not given), the IC50 is 19 µM.

Take `CCOc1ccc(Nc2c3ccccc3nc3ccccc23)cc1`: the IC50 was 19.6 µM.

Regarding `O=[N+]([O-])c1ccc(O)c2ncccc12`, the IC50 was 0.79 µM.

Take `CCN1/C(=C/C(C)=C/c2sc3ccccc3[n+]2CC)Sc2ccccc21`: the 50% inhibitory concentration (IC50) is 3.1 µM.

On to `CN(C)CCCNC(=S)NCC(c1ccc(Cl)cc1Cl)c1c[nH]c2ccccc12` (stereo not given), for which the IC50 is 26.4 µM.

In the case of `Cc1ncc(CC(=O)n2cc(C(=O)c3cc(Cl)ccc3O)cn2)s1`, the IC50 was 82.9 µM.

On to `CCCCCC(=O)NNC(=S)NC(C)=O`, for which the IC50 is 29.1 µM.

In the case of `Cc1cc(OCCCCCNCCO)cc(C)c1Cl`, the IC50 was 107 µM.

For the molecule `Nc1nnnn1/N=C/c1cc([N+](=O)[O-])ccc1O`, the IC50 is 52.1 µM.

In the case of `O=C(Nc1ccccc1)Nc1nccs1`, the concentration for half-maximal inhibition (IC50) was 96 µM.

For `Oc1c(Cl)cc(CN2CCCCC2)c2cccnc12`, the IC50 is 9.15 µM.

In the case of `Cc1cc(O)c2c(c1)C(=O)C13C(=C2O)C(=O)[C@H]2[C@@H](O)[C@@H]1[C@H]1[C@H](O)[C@@H]3C(=O)C3=C(O)c4c(O)cc(C)cc4C(=O)C312` (stereo not given in full), the IC50 is 7.46 µM.

For `Cc1ccc(-c2c[n+](Cc3ccc(Cl)c(Cl)c3)c3n2CCC3)cc1`, the IC50 is 25.8 µM.

`Cc1ccc(N=Cc2cc(Br)cc(Cl)c2O)cc1`: the IC50 is 47.1 µM.

As to `Oc1ccc(C[C@H]2CNCCN2CCCCC2CCCCC2)cc1`, the IC50 was 70.5 µM.

`Cc1[nH]c2ccc(OC(F)(F)F)cc2c1CCNCc1ccc(Cl)cc1`: the IC50 was 20.5 µM.

Turning to `CCCCCCCCCCOC(=O)Cn1c(COc2ccc(Cl)cc2)[n+](C)c2ccccc21`, the half-maximal inhibitory concentration (IC50) was 10.1 µM.

As for `CNCCCC1c2ccccc2C=Cc2ccccc21`, the concentration for half-maximal inhibition (IC50) is 67.1 µM.

Consider `NC(=NCCCCCCN=C(N)/N=C(\N)Nc1ccc(Cl)cc1)/N=C(\N)Nc1ccc(Cl)cc1`, for which the IC50 is 5.2 µM and 5.4 µM and 5.13 µM.

On to `CCC(=O)c1ccc(OCC(O)CNCCc2ccc(Cl)cc2)cc1` (stereo not given), for which the IC50 was 147 µM.

On to `O=C(Nc1ccc2nc(-c3ccc(Br)o3)[nH]c2c1)c1cccs1`, for which the IC50 was 15 µM.

With `CC1=NN(c2nc3ccccc3[nH]2)C(=O)C1Cc1ccccc1` (stereo not given), the IC50 was 34.2 µM.

Regarding `CN1CCN(c2cc3c(cc2F)c(=O)c(C(=O)O)cn3CCF)CC1`, the IC50 was 1.06 µM.

On to `Cc1ccc2c(c1)sc(-c1ccc(N(C)C)cc1)[n+]2C`, for which the 50% inhibitory concentration (IC50) was 35.3 µM.

For `Oc1c(CN2CCN(c3ccccn3)CC2)cc(Cl)c2cccnc12`, the IC50 is 17.7 µM.

With `CN1CCN(Cc2cc(COCc3ccccc3)c3cccnc3c2O)CC1`, the IC50 was 36.8 µM.

`C#CCOCCOCCOCCNc1nc(N2CCN(C(=O)CCCCCCCCCCNC(=O)[C@H](CCCCN)n3cc(C)nn3)CC2)nc(N2CCN(C(=O)CCCCCCCCCCNC(=O)[C@H](CO)n3cc(CCCSC)nn3)CC2)n1`: the IC50 is 130 µM.

Turning to `C[N+]12CN3CN(CN(C3)C1)C2`, the IC50 was 69.8 µM.

With `CCCCOCCCNc1ncnc2c1[nH]c1ccccc12`, the IC50 is 77.4 µM.

As for `C[C@H]1COc2c(C3(N)CC3)c(F)cc3c(=O)c(C(=O)O)cn1c23`, the half-inhibitory concentration (IC50) was 0.9 µM.

Consider `O=C(Nc1nnc(C2COc3ccccc3O2)o1)c1ccc(F)cc1` (stereo not given), for which the concentration for half-maximal inhibition (IC50) was 37.8 µM.

As to `Cc1cc(N=Nc2ccccc2)c(NCC(O)C(O)C(O)CO)cc1C` (stereo not given), the IC50 was 144 µM.

On to `Fc1ccc(NC(=S)Nc2cc(-c3ccccc3)[nH]n2)cc1Cl`, for which the concentration for half-maximal inhibition (IC50) was 71.7 µM.

In the case of `C[C@H]1c2cccc(O)c2C(O)=C2C(=O)C3(O)C(O)=C(C(N)=O)C(=O)[C@@H](N(C)C)[C@@H]3[C@@H](O)[C@@H]21` (stereo not given in full), the half-maximal inhibitory concentration (IC50) is 0.82 µM.

For `Cc1cccc2sc(N(CCCN(C)C)C(=O)COc3ccc(Cl)cc3)nc12`, the IC50 was 37.6 µM.

Turning to `CC(C)(C)CC(C)(C)c1ccc(OCCOCC[N+](C)(C)Cc2ccccc2)cc1`, the IC50 is 21.6 µM.

Take `Nc1ncn([C@@H]2O[C@H](CO)[C@@H](O)[C@H]2O)c(=O)n1`: the IC50 is 46.2 µM.

For the molecule `CCOC(=O)c1ccc(CNCc2ccc(Br)cc2)cc1`, the IC50 was 45.4 µM.

For `CCOc1ccc(OCCSc2nc(C)cc(=O)[nH]2)cc1`, the IC50 was 149 µM.

Consider `CCCCOc1ccc(Br)cc1CSC(=N)N`, for which the IC50 is 14.2 µM.

For the molecule `O=C(N/N=C/c1ccc(O)c(O)c1)C1c2ccccc2Oc2ccccc21`, the IC50 was 64.8 µM.

For `C#CCOCCOCCOCCNc1nc(N2CCN(C(=O)CCCCCCCCCCNC(=O)[C@H](CCCCN)n3cc(C)nn3)CC2)nc(N2CCN(C(=O)CCCCCCCCCCNC(=O)[C@@H]([C@H](C)CC)n3cc(CCCCCN)nn3)CC2)n1`, the IC50 was 20.4 µM.

Take `CCC(C)(C)c1ccc(OCCCC[n+]2ccccc2)c(C(C)(C)CC)c1`: the IC50 is 35.3 µM.

Consider `CCCCc1ccc(NC2=NCCCS2)cc1`, for which the 50% inhibitory concentration (IC50) is 80.5 µM.

With `CN1C(=O)NC(c2cccc(O)c2)C(C(=O)c2cccs2)C1(O)C(F)(F)F` (stereo not given), the IC50 was 24.6 µM.

With `CC(C(=O)c1ccc(-c2ccccc2)cc1)[n+]1cccc(NC(=O)c2ccccc2)c1` (stereo not given), the IC50 is 19.4 µM.

For `O=c1[nH]cc(N=Cc2cc([N+](=O)[O-])ccc2O)c(=O)[nH]1`, the IC50 is 77.8 µM.

In the case of `CC1CCC(C(C)C)C(OC(=O)Cn2c(-c3ccc(Br)cc3)[n+](C)c3ccccc32)C1` (stereo not given), the IC50 was 73.6 µM.

In the case of `C=CCOc1ccc(Cl)cc1CNC1CCCC1`, the IC50 was 102 µM.

On to `C/C=C/c1ccc(OCc2cc(=O)n3cc(C)ccc3n2)c(OC)c1`, for which the IC50 was 74.7 µM.

For `OC1(c2ccc(Cl)cc2)CCN(Cc2c[nH]c3ccccc23)CC1`, the IC50 was 29.8 µM.

Consider `Cc1cc(C2CCCCC2)n(O)c(=O)c1`, for which the half-inhibitory concentration (IC50) is 13.7 µM.

Regarding `CCn1cc(C(=O)O)c(=O)c2cc(F)c(N3CCN(S(=O)(=O)c4ccc(NC(C)=O)cc4)CC3)cc21`, the IC50 is 131 µM.

Consider `C=CCc1cc(Cl)ccc1OCCCNCCO`, for which the IC50 is 94.2 µM.

In the case of `COc1ccc(Cc2nnc(N/N=C/c3ccc(O)cc3)[nH]c2=O)cc1OC`, the IC50 was 83 µM.

As to `CN1CCCN(C(c2ccccc2)c2ccc(Cl)cc2)CC1` (stereo not given), the IC50 is 37.7 µM.

With `CCN1/C(=C/C=C/C=C/c2sc3ccccc3[n+]2CC)Sc2ccccc21`, the IC50 is 9.68 µM.

With `C[C@H]1O[C@@H](n2cc(F)c(=O)[nH]c2=O)[C@H](O)[C@@H]1O`, the IC50 was 63.7 µM.

The IC50 is the point on the concentration scale where inhibition reaches its midpoint.

(Values after PubChem BioAssay AID2384 (Southern Research Specialized Biocontainment Screening …, 2010).)
